Experimental data published in patent US12171821B2, “Toxoplasma gondii vaccine” (priority 2018, dated 2024).
“And” between values parts separate entries of the source, which are not always exact repeats. Equal entries are not always repeated. “Also recorded” adds a separate entry of the source.

Assays:
[1] = tested on: T. gondii ME49 bradyzoites; assay: qPCR of SAG1, GRA11B, TUB1A on cDNA of infected cat intestinal monolayers; format: cell-based, Toxoplasma gondii
Procedure: FIGS. 6A-B. Quantification of merozoites in cat tissue culture. A) Cat intestinal organoids were disassociated by trypsin then grown as monolayers on glass slides. Slides were divided into three different groups: not supplemented with fatty acid, supplemented with 200 μM oleic acid or supplemented 200 μM linoleic acid. Monolayers were infected with T. gondii MEM bradyzoites purified from brains of chronic infected mice at a 1:10 MOI. Five days after infection, staining for GRA11B and BRP1 along with DAPI, allowed the percentage of vacuoles positive for GRA11B and BRP1out of the total vacuoles was determined. Total number of parasitophorous vacuoles were counted by positive DAPI staining and confirmed by morphology with DIC. At least 50 parasitophorous vacuoles were counted per replicate. Three biological replicates were counted and on average 35% of the total vacuoles were positive far both GRA11B and BRP1 in the linoleic acid supplemented monolayers. *p-value=0.0126 with N=3 by two-tailed unpaired t test. Straining for both BRP1 and GRA11B was used to ensure that merozoite stages were counted. […] BRP1 is a rhoptry protein that was initially found in bradyzoites; however, it is also expressed in merozoite. B) Cat intestinal monolayers were grown as described in panel A, except monolayers were quenched by TRIzol 5 days post-infection, RNA was extracted, and cDNA was synthesized using an oligo (dT) primer to amplify mRNA, Expression of SAG1 and GRA11B were quantified by qPCR and the fold change calculated in comparison with uninfected cells. TUB1A was used to normalize gene expression across samples.
Real-time PCR on ileum cDNA. Z-DNA binding protein deletion mice ice with and without delta-6-desaturase inhibitor treatment were euthanized 7 days post infection. The ileum of each mouse was removed and homogenized in 1 mL of TRIzol. Total RNA was isolated according to manufacturer's protocol (Invitrogen) and treated with amplification grade Dnase I. cDNA was generated using the Invitrogen SuperScript III First-Strand Synthesis kit with random hexamer primers. GRA11B and SAG1 were used as markers of sexual and asexual stages, respectively. The T. gondii housekeeping gene TUB1A was used to normalize target gene expression. Real-time quantitative PCR was performed using Bio-Rad iTaq Universal SYBR Green Supermix on 311 an Applied Biosystems StepOnePlus Real-Time PCR system. The efficiency of each primer set was calculated from the slope of a 1:10 dilution standard curve of tachyzoite gDNA, where E=10^(−1/slope). The Pfaffl method (Pfaffl, 2001), which accounts for differences in efficiencies, was then used to calculate the relative gene expression of GRA11B and SAG1 per sample, in triplicate. Only wells with one melt curve temperature were used, indicating a single product. Primer sequences were as follows: […]

[2] = tested on: T. gondii ME49 bradyzoites; assay: Gametes and intracellular oocyst walls (AO2, 3G4, PCR) in infected cat intestinal monolayers; format: cell-based, Toxoplasma gondii
Procedure: FIGS. 7A-H. Identification of gametes and intracellular oocysts in cat tissue culture. Cat intestinal organoids were disassociated by trypsin then grown as monolayers on glass slides. […] After 7 days, monolayers were incubated with mouse anti-AO2 (panels A-C) or mouse monoclonal IgM 3G4 (panels E-G), The amiloride-sensitive amine oxidase, copper-containing protein 2 (AO2) is an enzyme exclusively expressed in macrogametes and early oocysts and has a possible role in oocyst wall biogenesis. […] 3G4 is a mouse monoclonal antibody produced by immunizing mice with purified oocyst walls, thus it is a marker of oocyst wall biogenesis. Only monolayers supplemented with linoleic acid (G) had positive 3G4 vacuoles. All panels are 20 μm square with a 5 μm white size bar in the lower right corner. D) Markers for macrogamete and microgamete expression were also evaluated by PCR. Cat intestinal monolayers were grown in 24-well plates until confluency and then infected with T. gondii bradyzoites in duplicate using the same conditions as above. 7 days post-infection, RNA was extracted with TRIzol and cDNA was synthesized using an oligo (dT) primer to only amplify mRNA. AO2 was again used as a marker for macrogametes and the expected PCR product is 218 bp. To assess microgamete presence, we selected the gene TgME49_306338, which is overexpressed in the gametes stage, corresponded to day 7 post-infection in cats and has 44% identity to a protein expressed in the flagella of the motile green algae Chlamydomonas reinhardtii. The expected PCR product for TgME49_306338 is 160 bp. TUB1A was used as an input control and results in a 172 bp product. NO RT corresponds to a cDNA synthesis reaction without the addition of reverse transcriptase (RI) as a control for genomic DNA contamination. Equivalent amounts of cDNA per sample were used as a template for each PCR reaction, and the products were separated on an acrylamide gel. […] H) The number of positive oocyst walls stained with 3G4 were quantified. […] The number of positive oocyst walls were counted in each slide and divided by the area of slide in cm^2.
Immunofluorescence. Intestinal organoid monolayers or mouse fecal samples were fixed in 3.7% formaldehyde in PBS for 20 minutes, permeabilized with 0.2% triton X-100 (Sigma) in PBS at room temperature for one hour and then blocked with 3% BSA in PBS at room temperature for one hour. Primary antibody was incubated at 4° C. overnight in 0.2% v/v Triton x-100 and 3% BSA in PBS (1:100 mouse anti-GRA11B, 1:100 rabbit anti-BRP1, 1:100 mouse anti-AO2, 1:50 monoclonal mouse anti-ZO1 (Santa Cruz) or 1:25 mouse 288 IgM anti-oocyst wall 3G4. Sporulated oocysts from mouse feces were dried onto slides, fixed and permeabilized with ice cold acetone for 30 minutes and incubated with 1:20 mouse 4B6 to the visualize the sporocyst. Slides were incubated one hour with the specific secondary antibody (1:500 goat anti-rabbit Alexa Fluor 488 and 1:500 goat anti-mouse Alexa Fluor 594) at room temperature for one hour and then washed 3 times with PBS. Cells nuclei were stained with 10 μM DAPI (Sigma). Slides were mounted in Vectashield antifade mounting medium (VectorLabs). Samples were imaged on Zeiss Axioplan III equipped with a triple-pass (DAPI/fluorescein isothiocyanate [FITC]/Texas Red) emission cube, differential interference contrast optics, and a monochromatic Axiocam camera operated by Zen software (Zeiss) and processed using ImageJ (Fiji packet).
PCR of cat intestinal monolayers. […]

[3] = cat intestinal monolayers cDNA, biological replicates 1 and 2
[4] = cat intestinal monolayers cDNA, biological replicates 1 and 2, wells 1-3

## CCCCC/C=C\C/C=C\CCCCCCCC(=O)O [linoleic acid]
[1]; [3]
  GRA11B Ct mean: 26.44 and 27.75
  SAG1 Ct mean: 19.15 and 19.99
[1]; [4]
  GRA11B raw Ct values: 26.53 and 27.67 and 26.34 and 27.82 and 26.44 and 27.77
  SAG1 raw Ct values: 19.09 and 20.09 and 19.19 and 19.93 and 19.16 and 19.95
[1]; cat intestinal monolayers, 200 μM, 5 days post-infection
  GRA11B expression by qPCR (fold change versus uninfected cells, normalized to TUB1A): significantly more abundant
[2]; cat cells, 20 μM linoleic acid
  oocyst wall production: did not enhance oocyst wall production
[2]; cat intestinal monolayers, 200 μM fatty acid, 7 days of infection
  macrogamete protein AO2 by immunofluorescence: round structures were seen with reactivity to the macrogamete protein AO210; also recorded: only detected by immunofluorescence in the monolayers supplemented with linoleic acid
[2]; cat intestinal monolayers, 200 μM, 7 days post-infection
  AO2 and TgME49_306338 expression by PCR (bands with the correct size): only observed in linoleic acid supplemented monolayers
[2]; cultured cat cells, 200 μM fatty acid, 7 days of infection
  number of positive oocyst walls stained with 3G4: approximately 9 oocyst walls per cm^2
